What was measured:
[1] = tested on: AMPK; assay: AMPK phosphorylation in Neuro2a cells (phospho-specific western blot); assay type: cell-based; settings: resveratrol 10 μM or AICAR 1 mM; 2 h up to 72 h
Description: (§1) FIG. 10A-D illustrates resveratrol activation of AMP kinase in Neuro2a cells. Neuro2a cells were switched to serum-starvation medium (medium containing 0.2% FCS) and treated with DMSO (vehicle control), resveratrol (10 μM) or 5-aminoimidazole-4-carboxamide-1-β-D-ribofuranoside (AICAR) (1 mM). […] Very low levels of phosphorylated AMPK and ACC were detected in DMSO treated control cells at all time points tested. (C) Densitometric analysis of changes in phosphorylated AMPK and (D) phosphorylated ACC under different conditions is shown.
(§2) Cell culture and Reagents. Neuro2 cells obtained from ATCC were grown in MEM with 1.5 g/L sodium bicarbonate, 0.1 mM nonessential amino acids, 0.1 mM sodium pyruvate, 2 mM L-glutamine with 10% FCS. For differentiation, cells were switched to serum-starvation medium (containing 0.2% FCS). For neurite outgrowth measurements, experiments were done in quadruplicate and 100 neurites per well were randomly measured using the Metamorph software. Dorsal root ganglia sensory and cortical neurons were established from E13.5 mouse embryos, maintained in neurobasal medium supplemented with B27 (and NGF for DRG neurons) and infected with lentiviruses as described (Araki et al., 2004, Science 305:1010-1013; Hawley et al., 2005, Cell Metab 2:21-23). Resveratrol was a gift from Sirtris Pharmaceuticals (Cambridge Mass.) and AICAR was obtained from Toronto Research (North York, Canada). Splitomycin and Compound C were purchased from Biomol (Plymouth Meeting, Pa.) and Calbiochem (San Diego, Calif.). Sirtinol and nicotinamide were purchased from Sigma (Saint Louis, Mo.)
Plasmids and viruses. The dominant negative (dnAMPK) and constitutively active (caAMPK) plasmids were gifts from Russell Jones (University of Pennsylvania, Philadelphia Pa.), and pCXN-Cre was a gift of Inder Verma (Salk Institute, San Diego, Calif.). All constructs were subcloned into the lentiviral shuttle vector FCIV and verified by nucleotide sequence analysis. Viruses were prepared as previously described (Araki et al., 2004, Science 305:1010-1013). Protein and mRNA analysis. Immunoprecipitations and western blot analysis were performed by standard methods using antibodies directed against total AMPK, phosphorylated AMPK, total ACC or phosphorylated ACC that were obtained from Cell Signaling Technology (Beverley, Mass.). The phospho-AMPK antibody detects endogenous AMPK α1 and α2 when phosphorylated at threonine 172. The LKB1 antibody was purchased from Upstate (Lake Placid, N.Y.). Quantitative RT-PCR analysis was performed using Sybr-Green methodology on a model 7700 instrument (Applied Biosystems) as previously described (Araki et al., 2004, Science 305:1010-1013). Primer sequences were those used in previous studies (Motoshima, et al., 2006, J Physiol 574:63-71).
To explore the role of polyphenols, in particular, of resveratrol, we tested whether resveratrol altered the activity of AMPK in neuronal cells. Neuro2a neuroblastoma cells were treated with resveratrol (10 μM) and AMPK activation was examined using phospho-AMPK specific antibodies. […] To confirm that AMPK activation by resveratrol results in typical AMPK-mediated downstream responses, we monitored phosphorylation of ACC (acetyl Co-A carboxylase), a primary target of activated AMPK. […] To examine a potential mechanism of resveratrol-mediated AMPK activation, we measured cellular ATP levels as a decreased ATP:AMP ratio increases the phosphorylation of AMPK. ATP levels were monitored using a luciferase-based assay in neuro2A cells treated with resveratrol or Oligomycin, an inhibitor of mitochondrial oxidative phosphorylation and therefore ATP production. While the ATP concentration dropped from 5.874 μM in DMSO-treated cells (control) to 0.976 μM in Oligomycin treated cells within 2 hr, the ATP concentration in resveratrol-treated Neuro2a cells was not altered from control either at 2 hr (6.33 μM) or 24 hr (6.42 μM).

[2] = tested on: acetyl Co-A carboxylase (ACC); assay: ACC phosphorylation in Neuro2a cells (phospho-specific western blot); assay type: cell-based; settings: resveratrol 10 μM or AICAR 1 mM; all time points to 72 hr
Description: as §1
Plasmids and viruses. […] Quantitative RT-PCR analysis was performed using Sybr-Green methodology on a model 7700 instrument (Applied Biosystems) as previously described (Araki et al., 2004, Science 305:1010-1013). […]
To explore the role of polyphenols, in particular, of resveratrol, we tested whether resveratrol altered the activity of AMPK in neuronal cells. […] To confirm that AMPK activation by resveratrol results in typical AMPK-mediated downstream responses, we monitored phosphorylation of ACC (acetyl Co-A carboxylase), a primary target of activated AMPK. […] To examine a potential mechanism of resveratrol-mediated AMPK activation, we measured cellular ATP levels as a decreased ATP:AMP ratio increases the phosphorylation of AMPK. […]

[3] = tested on: neuro2A cells; assay: Neuro2a cell proliferation, Ki67 immunocytochemistry; assay type: cell-based; settings: 0.2% fetal calf serum; AICAR 1 mM or resveratrol 10 μM; 24 h after plating; DMSO controls 50%
Description: (§3) Neuro2a cells are a widely used as in vitro model of neuronal differentiation. These cells cease to proliferate and begin to differentiate, as evidenced by neurite outgrowth, in response to serum starvation, retinoic acid, or growth factors like neurotrophins and GDNF family ligands. […] Neuro2a cells grown under serum starvation conditions (0.2% fetal calf serum) were treated with AICAR (1 mM) or resveratrol (10 μM).

[4] = tested on: neuro2A cells; assay: neurite outgrowth in Neuro2a cells; assay type: cell-based; settings: 0.2% FCS; resveratrol 10 μM or AICAR 1 mM
Description: FIG. 11A-D illustrates the resveratrol and AICAR stimulation of neurite outgrowth in Neuro2a cells. Neuro2a cells were switched to serum-starvation medium (medium containing 0.2% FCS) and treated with DMSO (vehicle control), resveratrol (10 μM) or AICAR (1 mM). (A) Serum deprivation of Neuro2a cells results in growth of short neurites that increase in length over 72 h. (B) Resveratrol induced rapid neurite outgrowth resulting in elaborate neurite network formation by 48 h. (C) AICAR stimulated extensive neurite outgrowth similar to that observed with resveratrol. (D).
FIG. 12A-M illustrates the dependency of resveratrol-induced neurite outgrowth and mitochondrial biogenesis on AMPK. Neuro2a cells were infected with lentivirus expressing GFP only (FUGW, control), dominant negative AMPK (dnAMPK) or constitutively active AMPK (caAMPK). Three days later cells were shifted to serum-starvation medium containing DMSO (control) or resveratrol (10 μM). In addition, uninfected Neuro2a cells in serum-starvation medium were treated with resveratrol alone, the AMPK inhibitor Compound C (CC, Biomol International L.P. (Plymouth Meeting, Pa.)) (10 μM) alone or with resveratrol and CC together. Images of the cultures captured in bright field and green fluorescence were overlaid to visualize neurite outgrowth. […] Neurite length in cells treated with caAMPK+resveratrol is also shown (G). […] Values were normalized to the 18S transcript. Data shown is representative of two independent experiments.
as §2, §3
Since resveratrol activated AMPK and altered the differentiation of Neuro2a cells, we next asked whether AMPK activity was required for resveratrol-induced neurite outgrowth. To address this issue, we infected Neuro2a cells with lentivirus expressing either GFP alone (FUGW-control) or dominant negative AMPK (dnAMPK). After 3 days growth to allow robust lentiviral transgene expression, the medium was replaced with serum starvation medium. […] Resveratrol-induced neurite outgrowth was reduced in the presence of the AMPK pharmacological inhibitor Compound C (CC 10 μM) further supporting the importance of AMPK activity for resveratrol-induced neurite outgrowth.

[5] = tested on: DRG neurons; assay: axonal injury of DRG neurons after hypoxia and reoxygenation; assay type: cell-based; settings: preincubation 45 min or lentiviral expression; 0.1% O2 8 or 16 hrs, 20 hrs reoxygenation
Description: FIG. 18 illustrates that activation of AMPK protects axons while inhibition of AMPK function enhances axonal injury during oxygen deprivation.
To examine whether AMPK activation prior to hypoxic stress protects axons from injury, either constitutively active AMPK (CaAMPK) was expressed in DRG neurons, or neurons were preincubated with the AMPK activator AICAR for 45 min prior to hypoxia. […] Thus, treatments that increase AMPK activity (e.g. resveratrol, AICAR) can block the axonal damage and are neuroprotective.

[6] = tested on: neuro2A cells; assay: survival of Neuro2A cells in nutrient-deprived conditions; assay type: cell-based; settings: regardless of the FCS concentration (10% or 0.2%)
Description: When Neuro2A cells are grown in culture in presence of 10% FCS, cells proliferate and ultimately die if cells are not passaged. If grown in the presence of 0.2% FCS, neuro2A cells differentiate and project neurites but ultimately die within one week.

[7] = tested on: Nrk2; assay: NAD synthesis enzyme mRNA in rotenone-treated DRG neurons (qRT-PCR); assay type: cell-based, rat; settings: 0.1 μM and 1 μM, 24 hours
Description: FIG. 6A-B illustrates expression analysis of NAD biosynthetic enzymes in mammal showing (A) NAD biosynthesis enzyme mRNA levels after 1, 3, 7, and 14 days after nerve transection in rat DRG were determined by qRT-PCR in which the expression level was normalized to glyceraldehydes-3-phosphate dehydrogenase expression in each sample and is indicated relative to the expression level in non-axotomized DRG; (B) neurite degeneration introduced by incubation DRG in 1 or 0.1 μM rotenone for indicated time and NAD synthesis enzyme mRNA levels were determined by qRT-PCR as described in the text.
Real-time quantitative reverse transcription-PCR analysis. All the surgical procedures were performed according to National Institute of Health guidelines for care and use of laboratory animals at Washington University. […] Quantitative reverse transcription (RT)-PCR was performed by monitoring in real-time the increase in fluorescence of the SYBR-GREEN dye on a TaqMan 7700 Sequence Detection System (Applied Biosystems).
To investigate the expression of mammalian NAD biosynthetic enzymes in the nervous system, we performed quantitative RT-PCR using RNA from mouse brain, retina, spinal code, and DRG at age of E14, P0, P7, P14 and P21. […] We also analyzed expression of NAD synthetic enzymes during the axonal degeneration caused by neurotoxin in cultured rat DRG neuron. […]

NC(=O)c1ncn([C@@H]2O[C@H](CO)[C@@H](O)[C@H]2O)c1N [AICAR, 5-aminoimidazole-4-carboxamide-1-β-D-ribofuranoside, reference compound]
AMPK phosphorylation [1]: stimulated AMPK phosphorylation
ACC phosphorylation [2]: promoted increased phosphorylation
proliferating cells (Ki67) [3]: 12.8%
neurite outgrowth compared to serum starvation alone [4]: increased neurite outgrowth
axonal injury (axonal beading) after hypoxia [5]: significantly reduced axonal injury after hypoxia
cell survival [6]: resistant to death for a prolonged period of time

C=C(C)[C@H]1Cc2c(ccc3c2O[C@@H]2COc4cc(OC)c(OC)cc4[C@@H]2C3=O)O1 [rotenone]
increase in expression of Nrk2 [7]: more than 6 folds
